Measured values published in ChEMBL document CHEMBL3045065, “Synthesis and analgesic effects of 2-(2-carboxyphenylsulfanyl)-N-(4-substitutedphenyl)acetamide derivatives” (Med Chem Res, 2011).

Columns and labels:
Mus musculus [1] = test: Neurotoxicity in Mus musculus Swiss albino (mouse) assessed as effect on vertical locomotory activity at 100 mg/kg, ip; type: toxicity, organism-based; parameters: dose 100 mg/kg, route intraperitoneal; details: in vivo
Mus musculus [2] = test: Neurotoxicity in Mus musculus Swiss albino (mouse) assessed as effect on horizontal locomotory activity at 100 mg/kg, ip; type: toxicity, organism-based; parameters: dose 100 mg/kg, route intraperitoneal; details: in vivo
Mus musculus [3] = test: Toxicity in Mus musculus Swiss albino (mouse) assessed as mortality at 100 mg/kg, ip; type: organism-based; parameters: dose 100 mg/kg, route intraperitoneal; details: in vivo
Mus musculus [4] = test: Analgesic activity in Mus musculus Swiss albino (mouse) at 100 mg/kg, ip measured after 30 min by tail clip test; type: functional; details: route intraperitoneal
Mus musculus [5] = test: Analgesic activity in Mus musculus Swiss albino (mouse) assessed as inhibition of acetic acid-induced writhing at 100 mg/kg, ip measured after 30 min relative to control; type: functional; details: 0.5 h, route intraperitoneal
Mus musculus [6] = test: Analgesic activity in Mus musculus Swiss albino (mouse) assessed as paw licking and jumping latency at 100 mg/kg, ip measured after 30 min by hot plate test; type: functional; details: route intraperitoneal
Mus musculus [7] = test: Neurotoxicity in Mus musculus Swiss albino (mouse) assessed as falling latency at 100 mg/kg, ip by Rota-Rod test; type: toxicity, organism-based; parameters: dose 100 mg/kg, route intraperitoneal; details: in vivo

SMILES | Activity (Mus musculus [1]) | Activity (Mus musculus [2]) | Activity (Mus musculus [3]) | MPE (Mus musculus [4]) [%] | inhibition in vivo at 100 mg/kg (Mus musculus [5]) [%] | Activity (Mus musculus [6]) [%] | Activity (Mus musculus [7])
O=C(O)c1ccccc1S [THIOSALICYLIC ACID] | Non-toxic | Non-toxic | Non-toxic | 40.37 | 33.9 | 62.49 | Non-toxic
O=C(CSc1ccccc1C(=O)O)Nc1ccc(Cl)cc1 | Non-toxic | Non-toxic | Non-toxic | 43.94 | 49.7 | 65.73 | Non-toxic
O=C(CSc1ccccc1C(=O)O)Nc1ccc(Br)cc1 | Non-toxic | Non-toxic | Non-toxic | 13.71 | 9.04 | 8.48 | Non-toxic
Cc1ccc(NC(=O)CSc2ccccc2C(=O)O)cc1 | Non-toxic | Non-toxic | Non-toxic | 72.31 | 76.3 | 89.37 | Non-toxic
COc1ccc(NC(=O)CSc2ccccc2C(=O)O)cc1 | Non-toxic | Non-toxic | Non-toxic | 25.01 | 27.7 | 35.12 | Non-toxic
O=C(CSc1ccccc1C(=O)O)Nc1ccc(C(=O)O)cc1 | Non-toxic | Non-toxic | Non-toxic | 17.05 | 20.3 | 18.07 | Non-toxic
CC(=O)Nc1ccc(O)cc1 [ACETAMINOPHEN] | Non-toxic | Non-toxic | Non-toxic | – | 29.4 | 51.61 | Non-toxic
O=C(CSc1ccccc1C(=O)O)Nc1ccccc1 | Non-toxic | Non-toxic | Non-toxic | 52.1 | 54.8 | 79.98 | Non-toxic
